The CheMixHub viscosity set

Assay: xn = mol fraction of the nth substance listed

OCCCl + Cc1ccccc1N
viscosity [mPa·s], 100 kPa
Details	x2 = 0.1141	x2 = 0.2148	x2 = 0.3201	x2 = 0.4123	x2 = 0.5121	x2 = 0.6225	x2 = 0.7112	x2 = 0.8184	x2 = 0.9017
303.15 K	2.67	2.744	2.82	2.884	2.953	3.026	3.084	3.151	3.202
308.15 K	2.312	2.378	2.445	2.502	2.562	2.626	2.676	2.734	2.777
313.15 K	1.963	2.031	2.099	2.157	2.219	2.285	2.337	2.396	2.44
318.15 K	1.645	1.711	1.777	1.834	1.893	1.958	2.008	2.067	2.108

CN1CCC[C@H]1c1cccnc1 + ClC(Cl)C(Cl)Cl
viscosity [mPa·s], 101.33 kPa
Details	x1 = 0.1547	x1 = 0.2569	x1 = 0.3706	x1 = 0.5146	x1 = 0.5995	x1 = 0.6384	x1 = 0.6803	x1 = 0.7501	x1 = 0.868
298.15 K	2.625	3.353	4.121	4.912	5.253	5.353	5.203	5.031	4.545
323.15 K	1.541	1.905	2.184	2.425	2.53	2.632	2.568	2.497	2.342

CN1CCC[C@H]1c1cccnc1 + ClC(Cl)Cl
viscosity [mPa·s], 101.33 kPa
Details	298.15 K	308.15 K	323.15 K
x1 = 0.1107	0.8162	0.7343	0.6076
x1 = 0.1213	0.8741	0.7473	0.6289
x1 = 0.2022	1.135	0.9654	0.8066
x1 = 0.219	1.197	0.9796	0.8071
x1 = 0.2456	1.275	1.082	0.8894
x1 = 0.2972	1.463	1.206	0.958
x1 = 0.3738	1.8	1.473	1.138
x1 = 0.4026	1.921	1.588	1.198
x1 = 0.4882	2.296	1.818	1.361
x1 = 0.5032	2.395	1.9	1.402
x1 = 0.6129	2.846	2.267	1.651
x1 = 0.623	2.964	2.301	1.663
x1 = 0.6823	3.103	2.409	1.756
x1 = 0.6974	3.196	2.471	1.768
x1 = 0.8059	3.563	2.756	1.912
x1 = 0.8931	3.704	2.959	2
x1 = 0.8962	3.741	2.974	2.002
